How the values were obtained:
HBV = HBV DNA in chronic Hepatitis B patients (Cobas Amplicor HBV Monitor Test); type: in vivo, Hepatitis B virus; details: five CHB patients; fell from >200,000 following treatment with lamivudine
Experimental: Eighteen non-cirrhotic patients with chronic Hepatitis B (CHB) and on-going viral replication (HBV DNA >200,000 genomes/mL, n=12 and 200-10,000 genomes/mL, n=6; Cobas Amplicor HBV Monitor (trademark) Test, USA) and 32 healthy control subjects were studied. TLR-2 and TLR-4 expression on CD14^+ve peripheral blood mononuclear cells (PBMC's) was measured by flow cytometry using anti-CD14 (Becton Dickinson) and anti-TLR-2 and anti-TLR-4 (eBioscience, USA) monoclonal antibodies. TLR expression was reassessed in five patients in whom HBV DNA fell from >200,000 to <200 genomes/mL following treatment with lamivudine. In vitro TLR-2 expression by PBMCs was measured in five control subjects at baseline and following stimulation for 20 h by partially purified recombinant HBV. […] TLR-2 expression normalised in each of the five lamivudine-treated CHB patients in whom HBV DNA became undetectable. In vitro expression of TLR-2 fell in a concentration-dependent manner following exposure to recombinant HBV.

[1] = Plasma endotoxin assay (chromogenic limulus amoebocyte lysate), cirrhotic patients; type: in vivo, human
TNF-α = assay: Serum TNF-α assay (Quantikine HS immunoassay), cirrhotic patients; type: in vivo, human; details: Child-Pugh B/C patients, n = 7; controls 1.7, no lactulose 3.1
sTNF RI (p55) = assay: Serum sTNFR assay, sTNF RI (p55), cirrhotic patients; type: in vivo, human; details: Child-Pugh B/C patients, n = 7; controls 1643, no lactulose 3852
Experimental: (§1) Peripheral blood was drawn using pyrogen-free needles, syringes and containers (Becton-Dickinson, Singapore). Plasma and serum were separated in a refrigerated centrifuge at 4° C. and stored at −70° C. in pyrogen-free polyethylene cryotubes (Nunc, Denmark) until analysis within six weeks of collection. Whole blood was used for determination of TLR expression on peripheral blood monocytes. Serum sTNF RI (p55) and sTNF RII (p75) were measured using Quantikine HS Human sTNFR Immunoassays (R&D Systems Inc., Minneapolis, USA), according to the manufacturer's instructions.

sTNF RII (p75) = assay: Serum sTNFR assay, sTNF RII (p75), cirrhotic patients; type: in vivo, human; details: Child-Pugh B/C patients, n = 7; controls 2438, no lactulose 5933
Experimental: as §1

TLR-2 = assay: Flow cytometry for TLR-2 expression on CD14+ve peripheral blood monocytes, cirrhotic patients; type: in vivo, human; details: Child-Pugh B/C patients, n = 7; ratio of geometric mean fluorescence to mean control values
TLR-4 = assay: Flow cytometry for TLR-4 expression on CD14+ve peripheral blood monocytes, cirrhotic patients; type: in vivo, human; details: Child-Pugh B/C patients, n = 7; ratio of geometric mean fluorescence to mean control values
From the text: Isotype matched non-binding controls were used for comparison. Ten thousand CD14^+ve cells were acquired for each sample and dead cells were gated out based on their light scatter properties on FACSCaliber flow cytometer (Becton Dickinson, USA). At least two control patients were used for standardization purposes every flow cytometry session. TLR-2 and TLR-4 values were expressed as a ratio of the geometric mean fluorescence of individual study patients to mean control values for that session.

PBMCs [2] = assay: In vitro production of TNF-α by PBMCs stimulated with endotoxin; type: cell-based, human; details: Child-Pugh B/C patients, n = 7; endotoxin 10 ng/mL, 20 h; ratio stimulated to unstimulated cells
PBMCs [3] = assay: In vitro production of TNF-α by PBMCs stimulated with SEB; type: cell-based, human; details: Child-Pugh B/C patients, n = 7; SEB 10 ng/mL, 20 h; ratio stimulated to unstimulated cells

| SMILES | HBV DNA following treatment (HBV) | Plasma endotoxin, Median ([1]; Child-Pugh B/C patients, n = 7, controls 25, no lactulose 49) | Plasma endotoxin values compared with control subjects ([1]; subgroup of Child-Pugh B and C patients treated with lactulose) | Serum TNF-α, Median (TNF-α) | Serum soluble TNF receptor I, Median (sTNF RI (p55)) | Serum soluble TNF receptor II, Median (sTNF RII (p75)) | Expression of TLR-2 on CD14+ve PBMCs, Median (TLR-2) | Expression of TLR-4 on CD14+ve PBMCs, Median (TLR-4) | In vitro production of TNF-α by PBMCs in response to endotoxin, Median (PBMCs [2]) | In vitro production of TNF-α by PBMCs in response to SEB, Median (PBMCs [3]) |
| --- | --- | --- | --- | --- | --- | --- | --- | --- | --- | --- |
| Nc1ccn([C@@H]2CS[C@H](CO)O2)c(=O)n1 [lamivudine] | < 200 genomes/mL |  |  |  |  |  |  |  |  |  |
| OC[C@H]1O[C@@H](O[C@@H]2[C@@H](CO)OC(O)(CO)[C@H]2O)[C@H](O)[C@@H](O)[C@H]1O (mixture of isomers) [lactulose] |  | 13 pg/mL | not significantly different from those in control subjects | 4.2 pg/mL | 3878 pg/mL | 5440 pg/mL | 1.29 | 1.06 | 3.1 | 1.5 |
